Experimental data: US20260021046A1, “LIPID NANOPARTICLE AND PHARMACEUTICAL COMPOSITION” (NATIONAL UNIVERSITY CORPORATION HOKKAIDO UNIVERSITY, priority 2022, published 2026)

Experiments:
normal mice = assay: Biological safety in normal mice (serum markers, histopathology); format: in vivo; conditions: CL15A6 lipid nanoparticles with EGFP mRNA, 2 mg/kg RNA iv, 24 hours
Description: In order to exclude the effects of liver fibrosis on hepatic function and tissues, the biosafety of the lipid nanoparticle prepared by using CL15A6 was evaluated in normal mice. Lipid nanoparticles containing EGFP mRNA were administered intravenously to mice at an amount of 2 mg/kg RNA per kg body weight. Twenty-four hours after the administration, the mice were euthanized, and serum and major organs were collected and analyzed in comparison with control mice treated with HEPES buffer. Aspartate transaminase (AST), alanine aminotransferase (ALT), and creatinine (CRE), which are functional markers of the liver or kidney, in plasma were colorimetrically quantified using a commercially available kit (Sigma-Aldrich), and the results were compared. In addition, the collected organs were fixed, stained with hematoxylin and eosin, and histopathologically evaluated as described in NPL 17. • [NPL 17] Mahmoud A. Younis, et al., “Ultra-small lipid nanoparticles encapsulating sorafenib and midkine-siRNA selectively-eradicate sorafenib-resistant hepatocellular carcinoma in vivo”, J Control Release, Vol. 331, pp. 335-349

SMO mRNA = assay: In vivo SMO mRNA knockdown in liver tissue by qRT-PCR; parameters: species or system mice; conditions: SMO-siRNA lipid nanoparticles, 0.5 mg/kg RNA iv, 24 hours, versus HEPES buffer control
Description: TAA-induced liver fibrosis model mice were prepared in the same manner as in Example 1, and SMO-siRNA-encapsulated lipid nanoparticles were intravenously administered to the mice via the tail vein so that the amount of RNA per kg of body weight was 0.5 mg/kg. 24 hours after the administration, the mouse livers were collected. The ratio of the amount of SMO mRNA to the amount of GAPDH mRNA in the liver tissue was confirmed by qRT-PCR. The SMO gene is expressed only in hepatic stellate cells in the liver.
Next, a lipid composition containing CL15H6 and SMO-siRNA were mixed in different ratios to prepare lipid nanoparticles with different nitrogen/phosphate (N/P) ratios. Specifically, lipid nanoparticles were prepared with N/P ratios of 0.5, 1, 2, 4, 8, 12, 16, and 20. The prepared lipid nanoparticles were intravenously administered to mice with liver fibrosis so that the amount of RNA per kg of body weight was 0.5 mg/kg, and the ratio of the amount of SMO mRNA to the amount of GAPDH mRNA in the liver tissue was confirmed 24 hours later.
Next, the relationship between the dosage amount of SMO-siRNA and the ratio of the amount of SMO mRNA to the amount of GAPDH mRNA in the liver tissue was examined. For comparison, the relationship between the dosage amount of control siRNA (siCtrl) and the ratio of SMO mRNA to GAPDH mRNA in hepatic stellate cells was also examined.
Lipid nanoparticles encapsulating a mixture of the above SMO-siRNA and TGFβ1-siRNA at a ratio of 1:1 were prepared by using CL15H6, the above SMO-siRNA (SEQ ID NOs: 1 and 2) targeting the mRNA of the SMO gene and the TGFβ1-siRNA (SEQ ID NOS: 3 and 4) targeting the mRNA of the TGFβ1 gene and having the sequence shown in Table 4 below. The prepared lipid nanoparticles were intravenously administered to mice with liver fibrosis so that each of the amounts of SMO-siRNA and of TGFβ1-siRNA per kg of body weight was 0.25 mg/kg, and 24 hours later, the ratios of the amounts of SMO mRNA and of TGFβ1 mRNA to the amount of GAPDH mRNA in the liver tissue was confirmed.

CCCCC/C=C\C/C=C\CCCCCCCCC(O)(CCCCCCCC/C=C\C/C=C\CCCCC)CCCCOC(=O)C1CCN(C)CC1 [CL15A6, (14z,17z)-5-hydroxy-5-((9z,12z)-octadeca-9,12-dien-1-yl)tricosa-14,17-dien-1-yl 1-methylpiperidine-4-carboxylate]
ALT (normal mice): no significant increases | AST (normal mice): no significant increases | CRE (normal mice): no significant increases | histopathology of major organs (liver, lung, heart, and kidney) (normal mice): no signs of injury | amount of SMO mRNA (ratio to GAPDH mRNA) in liver tissue (SMO mRNA): significantly reduced
